We go through nine molecules from patent publication US9709555B2, “Compound for generating second harmonic of light, dye composition for generating second harmonic of light, and cell examination method” (KEIO UNIVERSITY, priority 2013, dated 2017).

In brackets after ≈: the same amount, converted by molar mass. Entries after “also recorded” stand apart in the source; their conditions may differ.

The test system of data set [1] is CHO cells. Nature of the data set: Evaluation of SHG and TPF signals of dyes applied to CHO cells. The class given is cell-based, Chinese Hamster. The conditions noted are these: about 100 μM dye, pulse laser at 1,000 nm, qualitative comparison. As for the experimental part: (§1) DMSO solutions of the dyes #1 to #3, #4, #5 and Ap3 were diluted 1000 times using an extracellular fluid (Artificial Cerebrospinal Fluid), and when all were assumed to be dissolved, the final concentration was set at about 100 μM.
A CHO (Chinese Hamster Ovary) cell cultured on a cover glass was used as an observation subject, immersed into the above described dye solution to try dyeing a cell membrane, and directly observed under a microscope within several minutes.
A multiphoton laser microscope system (FV1000MPE manufactured by Olympus Corporation) on which an ultrashort femtosecond laser (MaitaiHP manufactured by Newport) was mounted was used for the observation, and SHG and two-photon fluorescence (Two-Photon Fluorescence: TPF) after irradiation by a pulse laser at 1,000 nm were observed under the same detection condition for each dye. Three images were obtained by changing fields of view per each dye, and signal intensities were qualitatively compared among the dyes. FIGS. 4 to 6 show images of Comparative Examples 4 to 6, and FIGS. 7 and 8 show images of Examples 2 and 3, respectively.

Data set [2] is described as follows: Evaluation of solubility of dyes. The class given is physicochemical. The conditions noted are these: for Dissolving in DMSO: DMSO added to a dye concentration of about 100 mM; for solubility: extracellular fluid (Artificial Cerebrospinal Fluid), aqueous buffer, kinetic from dmso stock; for solubility / Solubility (μM): solubility into a buffer, DMSO solution diluted 1000 times with extracellular fluid; for Solubility into a buffer: result in words. The protocol: Furthermore, using anionic, neutral, zwitter, and dicationic dyes shown in Table 1, solubility into a buffer, toxicity, and presence or absence of SHG and TPF signals when applied to cultured cells (CHO cells) were evaluated, respectively. Herein, the dyes #1 to 5 are dyes for generating a second harmonic of light outside of the range of the present invention, and the dyes #6 and 7 are dyes for generating a second harmonic of light within the range of the present invention.
DMSO (dimethyl sulfoxide) was added to the synthesized dye group (dyes #1 to #7) in Table 2 to have a concentration of a dye at about 100 mM and dissolving was attempted.
as §1

For data set [3], the system named is CHO cells. The experiment in a line: Evaluation of cytotoxicity of dyes (cell forms before and after dyeing). The class given is cell-based, Chinese Hamster. The conditions noted are these: cell form before and after dyeing, differential interference figure. As for the experimental part: For evaluation of cytotoxicity due to a dye, cell forms before and after dyeing were confirmed from a differential interference figure using near-infrared light. Cytotoxicity was evaluated by particularly focusing on two points that 1) a cell having an extended structure due to interaction with an extracellular matrix loses its adhesion to thus separate from a cover glass and is rounded, and 2) a cell membrane having a smooth form becomes an inhomogeneous and uneven form, when the physiological condition of the cell deteriorates.

In data set [4] the test system is cultured human normal astrocyte. Nature of the data set: SHG and TPF imaging of dye introduced into cultured human normal astrocyte. It counts as cell-based. The conditions noted are these: 100 μM dye in buffer, introduced by pipette, 1,000 nm exciting light; for SHG signal: SHG at 500 nm. The protocol:
A buffer containing 100 μM of FM4-64 was prepared and introduced into a cultured human normal astrocyte using a pipette. The dye that was introduced into the cell spreads throughout the entire cell over time.
For the measurement, a multiphoton microscope capable of SHG imaging and TPF imaging obtained by incorporating a tunable femtosecond mode synchronous infrared laser into a commercially available confocal laser scanning microscope was used as the light source. By irradiating with 1,000 nm of exciting light, an SHG signal light having a wavelength of 500 nm is generated from the dye in the same direction as the direction in which an infrared pulse laser travels. The signal can be detected in a photomultiplier tube provided on the laser light traveling direction side. A back scattered component of the TPF signal light is also observed by irradiating with the same exciting light.
SHG and TPF imaging was carried out in the same manner as Comparative Example 1 except for using Ap1 to Ap3 as dyes, and these cases were Comparative Examples 2 and 3 and Example 1, respectively.

A further data set deals with nerve cell. The note with it: dye introduced from the cell exterior, femtosecond laser; cited from earlier work.

In the case of `CCCCN(CCCC)c1ccc(/N=N/c2ccc(S(=O)(=O)O)cc2)cc1` [#1], in the data set on CHO cells [1], the SHG signal result was “Good” and the TPF signal entry was “None”. Moreover, in data set [2], the “Dissolving in DMSO” value is listed as “easily dissolved” and the solubility is about 100 µM (≈ 39 µg/mL). For the same molecule, in the data set on CHO cells [3], the Toxicity entry is on record as “High”.
For `CCCCCCN(CCCCCC)c1ccc(/N=N/c2ccc(S(=O)(=O)O)cc2)cc1` [#2], in that order: “Good”, “None”, “easily dissolved”, about 100 µM (≈ 44.6 µg/mL) and “High”.
For `CCCCCCCCN(CCCCCCCC)c1ccc(/N=N/c2ccc(S(=O)(=O)O)cc2)cc1` [#3], in that order: “Good”, “None”, “easily dissolved”, about 100 µM (≈ 50.2 µg/mL) and “Some”.
For the molecule `CCCCCCN(CCCCCC)c1ccc(/N=N/c2ccc(C=O)cc2)cc1` [#4], in the data set on CHO cells [1], the SHG signal result is given as “not obtained at all” and the TPF signal result is given as “not obtained at all”. For the same molecule, in data set [2], the “Dissolving in DMSO” value was “no dissolving” and the “Solubility (μM)” value was “Insoluble”.
On to `CCCCCCN(CCCCCC)c1ccc(/N=N/c2ccc(C=C(C#N)C#N)cc2)cc1` [#5], for which, in the data set on CHO cells [1], the SHG signal entry is “not obtained at all” and the TPF signal result is “not obtained at all”. In data set [2], the “Dissolving in DMSO” value is recorded as “no dissolving” and the “Solubility (μM)” value is “Insoluble”.
Turning to `CCCCCCN(CCCCCC)c1ccc(/N=N/c2cc[n+](CCCS(=O)(=O)[O-])cc2)cc1` [#6, (E)-3-(4-((4-(dihexylamino)phenyl)diazenyl)pyridin-1-ium-1-yl)propane-1-sulfonate], in the data set with CHO cells [1], the SHG signal entry is “observed and Fine”; the TPF signal entry was “not observed and None”. In addition, in data set [2], the “Dissolving in DMSO” value is listed as “poor solubility”, the solubility was under 100 µM and the “Solubility into a buffer” value was “no problem”. For the same molecule, the Toxicity result in the data set on CHO cells [3] is “no problem; also recorded: Little”.
Turning to `CCCCCCCCN(CCCCCCCC)c1ccc(/N=N/c2cc[n+](CCCS(=O)(=O)[O-])cc2)cc1` [#7, (E)-3-(4-((4-(dioctylamino)phenyl)diazenyl)pyridin-1-ium-1-yl)propane-1-sulfonate], in the data set on CHO cells [1], the SHG signal result is “observed and Fine”; the TPF signal entry was “not observed and None”. Further, in data set [2], the “Dissolving in DMSO” value was “poor solubility”, the solubility is under 100 µM and the “Solubility into a buffer” value is given as “no problem”. Besides, the Toxicity result in the data set with CHO cells [3] is “no problem; also recorded: Little”.
On to `CCCCCCN(CCCCCC)c1ccc(/N=N/c2cc[n+](CCC[N+](CC)(CC)CC)cc2)cc1` [Ap3], for which, in the data set with CHO cells [1], the SHG signal entry was “observed and Good”; the TPF signal result is “not observed and None”. For the same molecule, in data set [4], the TPF signal entry was “not observed” and the SHG signal result is “can be observed”. Besides, in data set [2], the concentration in solution (solubility) was 100 µM and the “Solubility into a buffer” value is listed as “no problem”. Besides, the Toxicity entry in the data set on CHO cells [3] was “no problem; also recorded: Little”.
On to `CCN(CC)c1ccc(/C=C/C=C/C=C/c2cc[n+](CCC[N+](CC)(CC)CC)cc2)cc1` [FM4-64, reference compound], for which, in data set [4], the TPF signal entry is “observed” and the SHG signal entry is listed as “observed”. For the same molecule, in the data set with nerve cell, the “Fluorescent (TPF) signal” value was “detected” and the SHG signal entry is recorded as “very strong”.

One may read the solubility as the concentration that dissolves in the medium under given conditions. Read a low solubility as little dissolved substance.
